Measured values taken from ChEMBL document CHEMBL1158870, “Antitumor agents. 180. Chemical Studies and cytotoxic evaluation of cumingianosides and cumindysoside A, antileukemic triterpene glucosides with a 14,18-cycloapotirucallane skeleton” (1997).

Legend:
[1] = system: UACC-257; experiment: Cytotoxicity against human UACC257 cells by SRB assay; type: functional
[2] = system: OVCAR-5; experiment: Cytotoxicity against human OVCAR5 cells by SRB assay; type: functional
[3] = system: OVCAR-3; experiment: Cytotoxicity against human OVCAR-3 cells by SRB assay; type: functional
[4] = system: MDA-MB-231; experiment: Cytotoxicity against human MDA-MB-231 cells by SRB assay; type: functional
[5] = system: DU-145; experiment: Cytotoxicity against human DU145 cells by SRB assay; type: functional
[6] = system: RXF 393; experiment: Cytotoxicity against human RXF393 cells by SRB assay; type: functional
[7] = system: EKVX; experiment: Cytotoxicity against human EKVX cells by SRB assay; type: functional
[8] = system: K562; experiment: Cytotoxicity against human K562 cells by SRB assay; type: functional
[9] = Cytotoxicity against human MCF7/ADR cells by SRB assay; type: functional; conditions: NCI/ADR-RES
[10] = system: BT-549; experiment: Cytotoxicity against human BT549 cells by SRB assay; type: functional
[11] = Cytotoxicity against human Hs 578T cells by SRB assay; type: functional
[12] = system: NSCLC; experiment: Cytotoxicity against human NSCLC cells by SRB assay; type: functional
[13] = system: SN12C; experiment: Cytotoxicity against human SN12C cells by SRB assay; type: functional
[14] = system: NCI-H460; experiment: Cytotoxicity against human NCI-H460 cells by SRB assay; type: functional
[15] = system: SF-268; experiment: Cytotoxicity against human SF268 cells by SRB assay; type: functional
[16] = system: Leukemia cell; experiment: Cytotoxicity against human Leukemia cells by SRB assay; type: functional
[17] = system: HOP-92; experiment: Cytotoxicity against human HOP92 cells by SRB assay; type: functional
[18] = system: MDA-N; experiment: Cytotoxicity against human MDA-N cells by SRB assay; type: functional
[19] = Cytotoxicity against human melanoma cells by SRB assay; type: functional; conditions: Melanoma cell
[20] = system: UACC-62; experiment: Cytotoxicity against human UACC62 cells by SRB assay; type: functional
[21] = system: MDA-MB-435; experiment: Cytotoxicity against human MDA-MB-435 cells by SRB assay; type: functional
[22] = Cytotoxicity against human Colon cancer cells by SRB assay; type: functional; conditions: Cancer cell lines
[23] = system: HCT-116; experiment: Cytotoxicity against human HCT116 cells by SRB assay; type: functional
[24] = system: HCT-15; experiment: Cytotoxicity against human HCT15 cells by SRB assay; type: functional
[25] = system: HCC 2998; experiment: Cytotoxicity against human HCC2998 cells by SRB assay; type: functional
[26] = system: IGROV-1; experiment: Cytotoxicity against human IGROV1 cells by SRB assay; type: functional
[27] = system: NCI-H23; experiment: Cytotoxicity against human NCI-H23 cells by SRB assay; type: functional
[28] = Cytotoxicity against human prostate cancer cells by SRB assay; type: functional; conditions: Cancer cell lines
[29] = Cytotoxicity against human ovarian cancer cells by SRB assay; type: functional; conditions: Cancer cell lines
[30] = system: SW-620; experiment: Cytotoxicity against human SW620 cells by SRB assay; type: functional
[31] = system: CAKI-1; experiment: Cytotoxicity against human Caki1 cells by SRB assay; type: functional
[32] = system: HOP-62; experiment: Cytotoxicity against human HOP62 cells by SRB assay; type: functional
[33] = system: CCRF-CEM; experiment: Cytotoxicity against human CCRF-CEM cells by SRB assay; type: functional
[34] = Cytotoxicity against human breast cancer cells by SRB assay; type: functional; conditions: Cancer cell lines
[35] = system: SK-MEL-2; experiment: Cytotoxicity against human SK-MEL-2 cells by SRB assay; type: functional
[36] = system: NCI-H322M; experiment: Cytotoxicity against human NCI-H322M cells by SRB assay; type: functional
[37] = system: SK-OV-3; experiment: Cytotoxicity against human SKOV3 cells by SRB assay; type: functional
[38] = system: Malme-3M; experiment: Cytotoxicity against human MALME-3M cells by SRB assay; type: functional
[39] = system: NCI-H522; experiment: Cytotoxicity against human NCI-H522 cells by SRB assay; type: functional
[40] = system: T47D; experiment: Cytotoxicity against human T47D cells by SRB assay; type: functional
[41] = system: SK-MEL-5; experiment: Cytotoxicity against human SK-MEL-5 cells by SRB assay; type: functional
[42] = system: SNB-19; experiment: Cytotoxicity against human SNB19 cells by SRB assay; type: functional
[43] = system: OVCAR-8; experiment: Cytotoxicity against human OVCAR8 cells by SRB assay; type: functional
[44] = system: COLO 205; experiment: Cytotoxicity against human COLO205 cells by SRB assay; type: functional
[45] = system: NCI-H226; experiment: Cytotoxicity against human NCI-H226 cells by SRB assay; type: functional
[46] = system: KM12; experiment: Cytotoxicity against human KM12 cells by SRB assay; type: functional
[47] = system: M14; experiment: Cytotoxicity against human M14 cells by SRB assay; type: functional
[48] = system: U-251; experiment: Cytotoxicity against human U251 cells by SRB assay; type: functional
[49] = system: MOLT-4; experiment: Cytotoxicity against human MOLT4 cells by SRB assay; type: functional
[50] = system: SK-MEL-28; experiment: Cytotoxicity against human SK-MEL-28 cells by SRB assay; type: functional
[51] = system: UO-31; experiment: Cytotoxicity against human UO31 cells by SRB assay; type: functional
[52] = system: HT-29; experiment: Cytotoxicity against human HT29 cells by SRB assay; type: functional
[53] = system: ACHN; experiment: Cytotoxicity against human ACHN cells by SRB assay; type: functional
[54] = system: RPMI-8226; experiment: Cytotoxicity against human RPMI8226 cells by SRB assay; type: functional
[55] = Cytotoxicity against human renal cancer cells by SRB assay; type: functional; conditions: Cancer cell lines
[56] = system: MCF7; experiment: Cytotoxicity against human MCF7 cells by SRB assay; type: functional
[57] = Cytotoxicity against human 786-O cells by SRB assay; type: functional; conditions: 786-0
[58] = Cytotoxicity against human HL60(TB) cells by SRB assay; type: functional, HL-60(TB); conditions: HL-60
[59] = system: SR; experiment: Cytotoxicity against human SR cells by SRB assay; type: functional
[60] = system: OVCAR-4; experiment: Cytotoxicity against human OVCAR4 cells by SRB assay; type: functional
[61] = Cytotoxicity against human CNS cancer cells by SRB assay; type: functional; conditions: Cancer cell lines
[62] = system: A549; experiment: Cytotoxicity against human A549 cells by SRB assay; type: functional
[63] = system: A498; experiment: Cytotoxicity against human A498 cells by SRB assay; type: functional
[64] = system: LOX IMVI; experiment: Cytotoxicity against human LOXIMVI cells by SRB assay; type: functional
[65] = system: SF-295; experiment: Cytotoxicity against human SF295 cells by SRB assay; type: functional
[66] = system: PC-3; experiment: Cytotoxicity against human PC3 cells by SRB assay; type: functional
[67] = system: SNB-75; experiment: Cytotoxicity against human SNB75 cells by SRB assay; type: functional

COC(C)(C)[C@@H](O)[C@H](O)C[C@H](C)C1=C2CC[C@@H]3[C@@]4(C)CC[C@@H](OC(C)=O)C(C)(C)[C@@H]4C[C@@H](O[C@@H]4O[C@H](COC(C)=O)[C@@H](O)[C@H](O)[C@H]4O)[C@@]3(C)[C@]2(C)CC1
GI50 [1]: 12.6 µM
GI50 [2]: 14.8 µM
GI50 [3]: 7.41 µM
GI50 [4]: 11.5 µM
GI50 [5]: 15.1 µM
GI50 [6]: 6.92 µM
GI50 [7]: 12.9 µM
GI50 [8]: 6.03 µM
GI50 [9]: 15.1 µM
GI50 [10]: 15.1 µM
GI50 [11]: 11.7 µM
TGI [12]: 25.6 µM
GI50 [13]: 13.5 µM
GI50 [14]: 9.12 µM
GI50 [15]: 10.2 µM
TGI [16]: 20.9 µM
GI50 [17]: 12.9 µM
GI50 [18]: 11.7 µM
TGI [19]: 29.9 µM
GI50 [20]: 8.71 µM
GI50 [21]: 12.3 µM
TGI [22]: 20.7 µM
GI50 [23]: 6.03 µM
TGI [23]: 19.2 µM
GI50 [24]: 11 µM
TGI [24]: 23.8 µM
GI50 [25]: 3.98 µM
TGI [25]: 13.4 µM
GI50 [26]: 13.2 µM
GI50 [27]: 14.5 µM
TGI [28]: 23.5 µM
TGI [29]: 25.6 µM
GI50 [30]: 15.8 µM
TGI [30]: 30.1 µM
GI50 [31]: 4.07 µM
GI50 [32]: 14.5 µM
GI50 [33]: 5.37 µM
TGI [34]: 24.8 µM
GI50 [35]: 13.2 µM
GI50 [36]: 12.9 µM
GI50 [37]: 15.1 µM
GI50 [38]: 15.1 µM
GI50 [39]: 12.3 µM
GI50 [40]: 12.6 µM
GI50 [41]: 14.5 µM
GI50 [42]: 12.3 µM
GI50 [43]: 12.9 µM
GI50 [44]: 10.7 µM
TGI [44]: 22.8 µM
GI50 [45]: 13.2 µM
GI50 [46]: 3.55 µM
TGI [46]: 18.9 µM
GI50 [47]: 12.3 µM
GI50 [48]: 5.37 µM
GI50 [49]: 5.13 µM
GI50 [50]: 11.7 µM
GI50 [51]: 13.5 µM
GI50 [52]: 5.13 µM
TGI [52]: 16.9 µM
GI50 [53]: 10.5 µM
GI50 [54]: 4.17 µM
TGI [55]: 23.6 µM
GI50 [56]: 2.63 µM
GI50 [57]: 14.5 µM
GI50 [58]: 3.63 µM
GI50 [59]: 3.09 µM
GI50 [60]: 10.7 µM
TGI [61]: 23.8 µM
GI50 [62]: 7.76 µM
GI50 [63]: 14.1 µM
GI50 [64]: 6.31 µM
GI50 [65]: 11.5 µM
GI50 [66]: 5.62 µM
GI50 [67]: 3.89 µM

C=C(C)[C@@H](O)[C@H](O)C[C@H](C)[C@@H]1CC[C@]2(C)C1=CC[C@@H]1[C@@]3(C)CC[C@@H](OC(C)=O)C(C)(C)[C@@H]3C[C@@H](O[C@@H]3O[C@H](COC(C)=O)[C@@H](O)[C@H](O)[C@H]3O)[C@]12C
GI50 [1]: 2.75 µM
GI50 [2]: 1.91 µM
GI50 [3]: 1.86 µM
GI50 [4]: 1.86 µM
GI50 [5]: 2.57 µM
GI50 [6]: 2.09 µM
GI50 [7]: 3.16 µM
GI50 [8]: 1.91 µM
GI50 [9]: 16.2 µM
GI50 [10]: 3.39 µM
GI50 [11]: 2.34 µM
TGI [12]: 9 µM
GI50 [13]: 3.09 µM
GI50 [14]: 2.45 µM
GI50 [15]: 2.82 µM
TGI [16]: 5.1 µM
GI50 [17]: 2.34 µM
GI50 [18]: 2.34 µM
TGI [19]: 4.2 µM
GI50 [20]: 1.51 µM
GI50 [21]: 1.95 µM
TGI [22]: 5 µM
GI50 [23]: 1.86 µM
TGI [23]: 3.5 µM
GI50 [24]: 2.95 µM
TGI [24]: 10 µM
GI50 [25]: 0.0776 µM
TGI [25]: 0.9 µM
GI50 [26]: 2.34 µM
GI50 [27]: 4.17 µM
TGI [28]: 7 µM
TGI [29]: 7.4 µM
GI50 [30]: 3.02 µM
TGI [30]: 10.4 µM
GI50 [31]: 2.63 µM
GI50 [32]: 2.63 µM
GI50 [33]: 2.24 µM
TGI [34]: 10.7 µM
GI50 [35]: 2 µM
GI50 [36]: 1.86 µM
GI50 [37]: 2.88 µM
GI50 [38]: 1.58 µM
GI50 [39]: 1.82 µM
GI50 [40]: 2.57 µM
GI50 [41]: 1.91 µM
GI50 [42]: 3.89 µM
GI50 [43]: 3.63 µM
GI50 [44]: 2.04 µM
TGI [44]: 3.5 µM
GI50 [45]: 3.02 µM
GI50 [46]: 1.58 µM
TGI [46]: 3 µM
GI50 [47]: 2.09 µM
GI50 [48]: 2.19 µM
GI50 [49]: 2.29 µM
GI50 [50]: 2.34 µM
GI50 [51]: 3.89 µM
GI50 [52]: 1.91 µM
TGI [52]: 3.8 µM
GI50 [53]: 1.91 µM
GI50 [54]: 1.91 µM
TGI [55]: 9.7 µM
GI50 [56]: 2.75 µM
GI50 [57]: 3.72 µM
GI50 [58]: 2.09 µM
GI50 [59]: 1.91 µM
GI50 [60]: 2.95 µM
TGI [61]: 9.5 µM
GI50 [62]: 3.24 µM
GI50 [63]: 3.89 µM
GI50 [64]: 1.62 µM
GI50 [65]: 2.19 µM
GI50 [66]: 2.14 µM
GI50 [67]: 1.86 µM
